Reference: US6844294B2, “Synergistic herbicidal compositions comprising herbicides from the benzoylcyclohexanedione group for use in rice crops” (Aventis CropScience GmbH, priority 2001, dated 2005)

Tests used:
Format in all cases: in vivo
SCPJU Scirpus juncoides = assay: Herbicidal action on SCPJU, visual scoring on a percentage scale vs untreated control
Text: (§1) Seeds or root segments of monocotyledonous and dicotyledonous harmful plants are placed in sandy loam in pots and covered with soil. In the case of spray application, the compositions formulated as concentrated aqueous solutions, wettable powders or emulsion concentrates, are then applied to the surface of the covering soil as aqueous solution, suspension or emulsion, respectively, at an application rate of 600 to 800 l of water per ha (converted) in a variety of dosages. Immediately to a few days after the application, the test containers are flooded with water up to a depth of 30 mm above the soil surface. In the case of submerged application, in contrast, the soil in the closed test container is already covered with paddy water up to a depth of 30 mm at the time of application. Here, the formulated active ingredients are added directly to the paddy water, for example in the form of granules. After the treatment, the pots are placed in a greenhouse and kept under good growth conditions for the weeds. Visual scoring of the plant damage or the adverse effect on the emergence is carried out after the test plants have emerged after an experimental period of 3 to 4 weeks in comparison with untreated controls. […] Frequently, effects of the combinations according to the invention are observed which exceed the formal total of the effects when the herbicides are applied individually. When using suitable low dosages, the values observed in the experiments show an effect of the combinations which exceed the expected values calculated using Colby's formula.
(§2) The herbicidal efficacy of the active ingredients or active ingredient mixtures was scored visually by comparing the treated variants with untreated control variants. The damage and development of all aerial plant parts was recorded. Scoring was done on a percentage scale (100% action=all plants dead; 50% action=50% of the plants and green plant parts dead; 0% action=no discernible action=like untreated control plot).
(§3) Seeds or root segments of monocotyledonous and dicotyledonous weeds are placed in sandy loam in pots, covered with soil and grown in the greenhouse under good growth conditions (temperature, atmospheric humidity, water supply). Approximately three weeks after planting, the experimental plants are treated with the compositions according to the invention. In the case of spray application, the compositions according to the invention, which are formulated as wettable powders or emulsion concentrates, are sprayed onto the green plant parts in various dosages with an application rate of 600 to 800 l of water per ha (converted). Immediately to a few days after the application, the test containers are flooded with water up to a depth of 30 mm above the soil surface. In the case of submerged application, in contrast, the soil in the closed test container is already covered with paddy water up to a depth of 30 mm at the time of application. Here, the formulated active ingredients are added directly to the paddy water. After the experimental plants have remained in the greenhouse under optimal growth conditions for a further 3 to 4 weeks, the effect of the preparations is scored visually in comparison with untreated controls. The compositions according to the invention also have an outstanding herbicidal action against a broad spectrum of economically important grass weeds and broad-leaved weeds when applied post-emergence. Frequently, effects of the combinations according to the invention are observed which exceed the formal total of the effects when the herbicides are applied individually. When using suitable low dosages, the values observed in the experiments show an effect of the combinations which exceed the expected values calculated using Colby's formula.
Crop plants were grown in the open on plots under natural field conditions, seeds or root segments of typical harmful plants having been planted and the natural weed flora being exploited. […]

SAGPY Sagittaria pygmaea = assay: Herbicidal action on SAGPY, visual scoring on a percentage scale vs untreated control
Text: (§4) Seeds or root segments of monocotyledonous and dicotyledonous harmful plants are placed in sandy loam in pots and covered with soil. In the case of spray application, the compositions formulated as concentrated aqueous solutions, wettable powders or emulsion concentrates, are then applied to the surface of the covering soil as aqueous solution, suspension or emulsion, respectively, at an application rate of 600 to 800 l of water per ha (converted) in a variety of dosages. Immediately to a few days after the application, the test containers are flooded with water up to a depth of 30 mm above the soil surface. In the case of submerged application, in contrast, the soil in the closed test container is already covered with paddy water up to a depth of 30 mm at the time of application. Here, the formulated active ingredients are added directly to the paddy water, for example in the form of granules. After the treatment, the pots are placed in a greenhouse and kept under good growth conditions for the weeds. […] When using suitable low dosages, the values observed in the experiments show an effect of the combinations which exceed the expected values calculated using Colby's formula.
(§5) The herbicidal efficacy of the active ingredients or active ingredient mixtures was scored visually by comparing the treated variants with untreated control variants. The damage and development of all aerial plant parts was recorded. […]
Seeds or root segments of monocotyledonous and dicotyledonous weeds are placed in sandy loam in pots, covered with soil and grown in the greenhouse under good growth conditions (temperature, atmospheric humidity, water supply). […] After the experimental plants have remained in the greenhouse under optimal growth conditions for a further 3 to 4 weeks, the effect of the preparations is scored visually in comparison with untreated controls. […] When using suitable low dosages, the values observed in the experiments show an effect of the combinations which exceed the expected values calculated using Colby's formula. […]

PHBPU = assay: Herbicidal action on PHBPU, visual scoring on a percentage scale vs untreated control
Text: as §1, §2
as §3, with “The compositions according to the invention also have an outstanding herbicidal action against a broad spectrum of economically important grass weeds and broad-leaved weeds when applied post-emergence. Frequently, effects of the combinations according to the invention are observed which exceed the formal total of the effects when the herbicides are applied individually.” left out, “formula. […]” for “formula.”

ECHCG = assay: Herbicidal action on ECHCG, visual scoring on a percentage scale vs untreated control
Text: as §4, with “granules.” for “granules. After the treatment, the pots are placed in a greenhouse and kept under good growth conditions for the weeds.”
as §5

CYPSE = assay: Herbicidal action on CYPSE, visual scoring on a percentage scale vs untreated control
CHEAL = assay: Herbicidal action on CHEAL, visual scoring on a percentage scale vs untreated control
Text: as §4, with “granules.” for “granules. After the treatment, the pots are placed in a greenhouse and kept under good growth conditions for the weeds.”
as §5

SEBEX Sesbania exaltata = assay: Herbicidal action on SEBEX, visual scoring on a percentage scale vs untreated control
Text: as §1, §2
as §3, with “The compositions according to the invention also have an outstanding herbicidal action against a broad spectrum of economically important grass weeds and broad-leaved weeds when applied post-emergence. Frequently, effects of the combinations according to the invention are observed which exceed the formal total of the effects when the herbicides are applied individually.” left out, “formula. […]” for “formula.”

MOOVA = assay: Herbicidal action on MOOVA, visual scoring on a percentage scale vs untreated control
Text: as §4, with “granules.” for “granules. After the treatment, the pots are placed in a greenhouse and kept under good growth conditions for the weeds.”
as §5

ECHOR = assay: Herbicidal action on ECHOR, visual scoring on a percentage scale vs untreated control; conditions: Example B.XII, dosage 25 g ai/ha
Text: as §4, with “granules.” for “granules. After the treatment, the pots are placed in a greenhouse and kept under good growth conditions for the weeds.”
as §5

[1] = Example B.IX, dosage 187 g ai/ha
[2] = Example B.XV, dosage 4.3 g ai/ha
[3] = Example B.XIII, dosage 22 g ai/ha
[4] = Example B.X, dosage 1.8 g ai/ha
[5] = Example B.IV, dosage 20 g ai/ha

CN(C(=O)COc1nc2ccccc2s1)c1ccccc1 [Compound B5.1, mefenacet]
found (herbicidal action) (SCPJU Scirpus juncoides; Example B.XIV, dosage 125 g ai/ha): 0% | found (herbicidal action) (SAGPY Sagittaria pygmaea; Example B.XIV, dosage 63 g ai/ha): 0%

CCC(CC)Nc1c([N+](=O)[O-])cc(C)c(C)c1[N+](=O)[O-] [Compound B7.1, pendimethalin]
found (herbicidal action) (PHBPU; Example B.V, dosage 100 g ai/ha): 75% | found (herbicidal action) (ECHCG; Example B.V, dosage 200 g ai/ha): 78%

CCN(CC)C(=O)SCc1ccc(Cl)cc1 [Compound B1.2, thiobencarb]
found (herbicidal action) (SCPJU Scirpus juncoides; [1]): 20% | found (herbicidal action) (SAGPY Sagittaria pygmaea; [1]): 0%

CC1=C(c2ccccc2)C(=O)N(C(C)(C)c2cc(Cl)cc(Cl)c2)CO1 [Compound B5.2, oxaziclomefone]
found (herbicidal action) (CYPSE; [2]): 0% | found (herbicidal action) (SCPJU Scirpus juncoides; [2]): 0%

CCCCOC(=O)[C@@H](C)Oc1ccc(Oc2ccc(C#N)cc2F)cc1 [Compound B4.1, cyhalofop-butyl]
found (herbicidal action) (CYPSE; [3]): 0% | found (herbicidal action) (SCPJU Scirpus juncoides; [3]): 0%

CCc1cnc(C2=NC(C)(C(C)C)C(=O)N2)c(C(=O)O)c1 (stereo not shown) [Compound B2.9, imazethapyr]
found (herbicidal action) (PHBPU; Example B.II, dosage 5 g ai/ha): 5% | found (herbicidal action) (CHEAL; Example B.II, dosage 10 g ai/ha): 5%

COc1cc(OC)n2nc(S(=O)(=O)Nc3c(Cl)ccc(C)c3Cl)nc2n1 [Compound B2.13, metosulam]
found (herbicidal action) (SEBEX Sesbania exaltata; B.III, dosage 2.5 g ai/ha): 30% | found (herbicidal action) (PHBPU; B.III, dosage 2.5 g ai/ha): 85%

CP(=O)(O)CCC(N)C(=O)O (stereo not shown) [Compound B10.1, glufosinate]
found (herbicidal action) (SEBEX Sesbania exaltata; Example B.VII, dosage 100 g ai/ha): 5% | found (herbicidal action) (ECHCG; Example B.VII, dosage 50 g ai/ha): 0%

CCC(=O)Nc1ccc(Cl)c(Cl)c1 [Compound B8.1, propanil]
found (herbicidal action) (SCPJU Scirpus juncoides; Example B.XVI, dosage 375 g ai/ha): 0% | found (herbicidal action) (MOOVA; Example B.XVI, dosage 187 g ai/ha): 0%

COc1cc(OC)nc(Oc2cccc(Oc3nc(OC)cc(OC)n3)c2C(=O)O)n1 [Compound B2.2, bispyribac-sodium]
found (herbicidal action) (SCPJU Scirpus juncoides; [4]): 0% | found (herbicidal action) (MOOVA; [4]): 0%

O=C(O)CNCP(=O)(O)O [Compound B11.1, glyphosate]
found (herbicidal action) (CHEAL; Example B.VIII, dosage 100 g ai/ha): 0%

COc1cc(OC)nc(NC(=O)NS(=O)(=O)Cc2ccccc2C(=O)O)n1 [Compound B2.1, bensulfuron]
found (herbicidal action) (CYPSE; Example B.I, dosage 10 g ai/ha): 68% | found (herbicidal action) (SEBEX Sesbania exaltata; Example B.I, dosage 20 g ai/ha): 45%

O=C(O)c1c(Cl)ccc2cc(Cl)cnc12 [Compound B9.1, quinclorac]
found (herbicidal action) (SEBEX Sesbania exaltata; Example B.VI, dosage 5 g ai/ha): 0% | found (herbicidal action) (PHBPU; Example B.VI, dosage 10 g ai/ha): 78%

CCOC(=O)C(C)Oc1ccc(Oc2nc3ccc(Cl)cc3o2)cc1 (stereo not shown) [Compound B4.2, fenoxaprop-ethyl]
found (herbicidal action) (SEBEX Sesbania exaltata; [5]): 0% | found (herbicidal action) (PHBPU; [5]): 0%

COC(=O)c1c(Cl)nn(C)c1S(=O)(=O)NC(=O)Nc1nc(OC)cc(OC)n1 [Compound B2.5, halosulfuron-methyl]
found (herbicidal action) (SCPJU Scirpus juncoides; Example B.XI, dosage 15 g ai/ha): 0% | found (herbicidal action) (SAGPY Sagittaria pygmaea; Example B.XI, dosage 7.5 g ai/ha): 0%

CC1(C)CON(Cc2ccccc2Cl)C1=O [Compound B3.1, clomazone]
found (herbicidal action) (CYPSE; Example B.XII, dosage 50 g ai/ha): 0% | found (herbicidal action) (ECHOR): 30%
